The results in this text go back to patent US20140024663A1, “ATB(0,+) AMINO ACID TRANSPORTER AS A DRUG TARGET FOR TREATMENT OF ESTROGEN RECEPTOR-POSITIVE BREAST CANCER” (GEORGIA HEALTH SCIENCES UNIVERSITY RESEARCH INSTITUTE, INC., priority 2012, published 2014).

Holding throughout (type): cell-based, human
In experiment [1] the test system is MCF10A cells. The experiment is described as follows: ASNS and CHOP mRNA by RT-PCR as readout for amino acid deprivation. The conditions noted are these: SLC6A14-negative MCF10A, α-MT 2.5 mM, 24, 48 or 72 h. Here is the method:
(§1) FIGS. 6A to 6C. Effects of SLC6A14 blockade with α-MT in breast cancer cells. In FIG. 6A, MCF10A (a non-malignant mammary epithelial cell line), MCF7 (an ER-positive breast cancer cell line), and MB231 (an ER-negative breast cancer cell line) cells were treated with or without 2.5 mM α-MT for 24, 48, or 72 h and then used for analysis of asparagine synthetase (ASNS) and CHOP mRNA levels. In FIG. 6B, MCF7, MB231 and MCF10A cells were treated with or without 2.5 mM α-MT for 48 h and then used for immunocytochemical analysis of the constitutively expressed LC-3. In FIG. 6C, MCF7 cells were treated with (“b” and “c”) or without (“a”) α-MT (2.5 mM) for 48 h and then used for electron microscopy. Arrows indicate sequestration of cytoplasm and organelles in pre-autophagosomes and autophagosome, and the asterisk indicates condensed chromatin. N, nucleus.
(§2) RT-PCR. Total RNA was isolated using TRIZOL™ (Invitrogen). 2 μg of RNA was reverse transcribed using the GeneAmp PCR System (Applied Biosystems, Branchburg, N.J.). PCR reaction was performed under optimal conditions specific for each of the primer pairs. GAPDH (glyceraldehyde-3-phosphate dehydrogenase) or HPRT1 (hypoxanthine/guanine phosphoribosyl transferase-1) were used as internal controls. PCR products were size-fractionated on agarose gel, stained with ethidium bromide and imaged using Alpha Imager (Santa Clara, Calif.). […]

In experiment [2] the test system is MB231 cells. The description is as above. To be noted: SLC6A14-negative MB231, α-MT 2.5 mM, 24, 48 or 72 h. On the procedure:
as §1, §2

Experiment [3] deals with MCF7 cells. The experiment is described as follows: Apoptotic cell death by annexin V labeling. To be noted: MCF7, single agent (α-MT 2.5 mM or 3-MA 10 mM), 48 h. On the procedure:
FIGS. 9A to 9D. Influence of α-MT on mTOR activity In FIG. 9A, MCF7 and MB231 cells were treated without or with α-MT (2.5 mM) for 24 h, 48 h, or 72 h, and then the cell lysates were used for western blot. Influence of α-MT with or without 3-MA on cell death. In FIG. 9B, MCF7, MB231, and MCF10A cells were treated for 48 h without or with α-MT (2.5 mM), 3-MA (10 mM), or α-MT (2.5 mM) plus 3-MA (10 mM), and then analyzed for cell death by propidium iodide (PI) staining and FACS-based cell cycle analysis. In FIG. 9C, MCF7 cells were treated for 48 h without or with α-MT (2.5 mM), 3-MA (10 mM), or α-MT (2.5 mM) plus 3-MA (10 mM), and then analyzed for apoptotic cell death by annexin V labeling. In FIG. 9D, MCF7 and MB231 cells were treated without or with 2.5 mM α-MT for 24 h, 48 h, or 72 h. Cell lysates were then used for western blot analysis of lamin A degradation product using an antibody that recognizes specifically the proteolytic cleavage product. β-Actin was used as an internal control.
Apoptosis assay. Fluorescence-activated cell sorting (FACS) was used to monitor cell death. MCF7 cells were treated with or without α-MT, 3-MA, or α-MT plus 3-MA. Control and treated cells were then fixed in 50% ethanol, treated with 0.1% sodium citrate, 1 mg/ml RNase A, and 50 μg/ml propidium iodide, and then subjected to FACS analysis (FACS Caliber, Becton Dickinson). FITC-labeled annexin V was used to differentiate apoptotic cell death from necrotic cell death.

For experiment [4], the system named is MCF7 cells. The experiment can be described thus: Cell death by propidium iodide staining and FACS cell cycle analysis. To be noted: 48 h.
In experiment [5] the test system is MCF10A cells. The experiment can be described thus: Analysis of autophagy (LC3 localization). To be noted: α-MT 2.5 mM, 48 h. On the procedure: (§3) FIGS. 6A to 6C. Effects of SLC6A14 blockade with α-MT in breast cancer cells. In FIG. 6A, MCF10A (a non-malignant mammary epithelial cell line), MCF7 (an ER-positive breast cancer cell line), and MB231 (an ER-negative breast cancer cell line) cells were treated with or without 2.5 mM α-MT for 24, 48, or 72 h and then used for analysis of asparagine synthetase (ASNS) and CHOP mRNA levels. In FIG. 6B, MCF7, MB231 and MCF10A cells were treated with or without 2.5 mM α-MT for 48 h and then used for immunocytochemical analysis of the constitutively expressed LC-3. In FIG. 6C, MCF7 cells were treated with (“b” and “c”) or without (“a”) α-MT (2.5 mM) for 48 h and then used for electron microscopy. […]
(§4) Analysis of autophagy. Autophagy was analyzed as described previously (Periyasamy-Thandavan et al., 2010, Autophagy; 6:19-35; and Samaddar et al., 2008, Mol Cancer Ther; 7:2977-2987) by monitoring the localization pattern of constitutively expressed LC3 as well as that of ectopically expressed GFP-LC3. […] At the end of the treatment, cells were fixed with 4% paraformaldehyde and examined by fluorescence microscopy to count the number of cells with punctate GFP-LC3. Autophagosomal proteolysis was quantified as described previously (Periyasamy-Thandavan et al., 2010, Autophagy; 6:19-35). […]

Experiment [6] relates to MB231 cells. The experiment can be described thus: Analysis of autophagy (LC3 localization). To be noted: MB231, α-MT 2.5 mM, 48 h. On the procedure: as §3, §4

As to `CC(N)(Cc1c[nH]c2ccccc12)C(=O)O` (racemic) [α-MT, α-methyl-DL-tryptophan], the “levels of asparagine synthetase mRNA and CHOP mRNA” value in experiment [1] and in experiment [2] was “not” in each case. Also, in experiment [3], the “apoptotic cell death by annexin V labeling” value was “induced apoptotic cell death”. For the same molecule, the “cell death (propidium iodide, cell cycle analysis)” value in experiment [4] (MCF7, α-MT 2.5 mM alone) is “significant cell death”; in experiment [4] (MCF7, α-MT 2.5 mM with cotreatment 3-MA 10 mM) it was “further potentiated”. The “autophagy (LC3 localization)” value in experiment [5] and in experiment [6] was “did not undergo autophagy” in each case.
